Results: PMC8818328 (European journal of medicinal chemistry, 2021)

What was measured:
[1] = system: renal cancer cell lines A-498 and Caki-1; test: MTT assay, renal cancer cell lines; format: cell-based; details: for IC50: read-out: IC50 against the tested renal cancer cell lines; for GI% renal cancer cell lines A-498 and Caki-1: 10 μM, range over both cell lines
[2] = system: HCT116, HT-29, K562, KG-1, A-498 and Caki-1 cell lines; test: MTT assay, all six tested cell lines; format: cell-based; details: 10 μM, range over six cell lines
[3] = system: HDAC2 and FAK in A-498 cells; test: Western blot of HDAC2 expression and FAK phosphorylation, A-498 cells; format: cell-based; details: 24 h at IC50, Western blot
[4] = system: HDAC2 and FAK in Caki-1 cells; test: Western blot of HDAC2 expression and FAK phosphorylation, Caki-1 cells; format: cell-based; details: 24 h at IC50, Western blot
HCT116 = test: MTT proliferation assay, HCT116; format: cell-based; details: Homo sapiens, HCT-116, 24 h, read-out: Growth inhibition (%) HCT116
K562 = test: MTT proliferation assay, K562; format: cell-based; details: Homo sapiens, K562, 24 h, read-out: Growth inhibition (%) K562
A-498 cells [5] = test: Resistance development assay; details: Homo sapiens, A498, read-out: IC50 on pretreated A-498 cells
[6] = system: HDAC2, p-FAK, p-Akt in A-498 cells; test: Resistance development assay, Western blot of HDAC2, p-FAK, FAK, p-Akt, Akt
STAT3 in A-498 cells = test: Western blot of STAT3 activation; format: cell-based
caspase-3 = test: Active caspase-3 ELISA in A-498 cells; format: cell-based, human; details: control 45.57
caspase-9 = test: Caspase-9 ELISA in A-498 cells; format: cell-based, human; details: 24 h, control 4.53
A-498 cells [7] = test: Cell cycle analysis by flow cytometry, A-498; format: cell-based; details: 24 h
caspase-8 = test: Caspase-8 ELISA in A-498 cells; format: cell-based, human; details: 24 h, control 0.274
Caki-1 cells = test: Cell cycle analysis by flow cytometry, Caki-1; format: cell-based; details: 24 h
HDAC1 = HDAC1 (Homo sapiens, UniProt Q13547); test: Fluorogenic enzymatic assay HDAC1; format: biochemical
[8] = A-498 cells pretreated 12 weeks
[9] = A-498 cells, both pretreated (12 weeks) and not pretreated

HDAC1, sequence (Q13547 whole entry): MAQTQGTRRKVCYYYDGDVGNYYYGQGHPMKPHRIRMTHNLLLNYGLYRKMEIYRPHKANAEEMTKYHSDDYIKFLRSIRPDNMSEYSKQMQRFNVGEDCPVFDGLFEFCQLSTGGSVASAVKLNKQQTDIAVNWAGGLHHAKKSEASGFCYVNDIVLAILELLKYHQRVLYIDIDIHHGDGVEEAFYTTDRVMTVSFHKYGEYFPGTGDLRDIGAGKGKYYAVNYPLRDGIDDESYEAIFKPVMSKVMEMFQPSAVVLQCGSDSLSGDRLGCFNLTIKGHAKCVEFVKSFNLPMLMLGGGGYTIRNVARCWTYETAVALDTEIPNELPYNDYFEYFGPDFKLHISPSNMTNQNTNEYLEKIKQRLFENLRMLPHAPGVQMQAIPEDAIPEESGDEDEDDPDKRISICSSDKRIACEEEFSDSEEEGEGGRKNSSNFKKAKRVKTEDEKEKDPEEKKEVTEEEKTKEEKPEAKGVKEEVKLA

Cn1c(SCCCCCC(=O)Nc2ccccc2N)nnc1-c1ccncc1 [Compound 7a, N-(2-aminophenyl)-6-((4-methyl-5-(pyridin-4-yl)-4H-1,2,4-triazol-3-yl)thio)hexanamide]
IC50 [1]: 6.19 to 20.9 µM

C=CCn1c(SCCCCCC(=O)Nc2ccccc2N)nnc1-c1ccncc1 [Compound 7c, 6-((4-allyl-5-(pyridin-4-yl)-4H-1,2,4-triazol-3-yl)thio)-N-(2-aminophenyl)hexanamide]
GI% renal cancer cell lines A-498 and Caki-1 [1]: 89.34–99.81%
IC50 [1]: 0.95 to 2.35 µM
GI% against all the tested cells [2]: 40.12–99.81%
FAK phosphorylation [3]: entirely blocked
FAK phosphorylation [4]: entirely blocked

Cn1c(SCc2ccc(C(=O)NO)cc2)nnc1-c1ccncc1 [Compound 10a, N-hydroxy-4-(((4-methyl-5-(pyridin-4-yl)-4H-1,2,4-triazol-3-yl)thio)methyl)benzamide]
IC50 [1]: 6.19 to 20.9 µM
inhibition at 10 µM (HCT116): 32.4%

Nc1ccccc1NC(=O)CCCCCSc1nnc(-c2ccncc2)n1-c1ccccc1 [Compound 7d, N-(2-aminophenyl)-6-((4-phenyl-5-(pyridin-4-yl)-4H-1,2,4-triazol-3-yl)thio)hexanamide]
inhibition at 10 µM (K562): 15.1%

O=C(NO)c1ccc(CSc2nnc(-c3ccncc3)n2-c2ccccc2)cc1 [Compound 10d, N-hydroxy-4-(((4-phenyl-5-(pyridin-4-yl)-4H-1,2,4-triazol-3-yl)thio)methyl)benzamide]
IC50 [1]: 6.19 to 20.9 µM

Cn1c(SCc2ccc(C(=O)Nc3ccccc3N)cc2)nnc1-c1ccncc1 [Compound 11a, N-(2-aminophenyl)-4-(((4-methyl-5-(pyridin-4-yl)-4H-1,2,4-triazol-3-yl)thio)methyl)benzamide]
IC50 [1]: 6.19 to 20.9 µM

C=CCn1c(SCc2ccc(C(=O)NO)cc2)nnc1-c1ccncc1 [Compound 10c, 4-(((4-allyl-5-(pyridin-4-yl)-4H-1,2,4-triazol-3-yl)thio)methyl)-N-hydroxybenzamide]
IC50 [1]: 6.19 to 20.9 µM

Nc1ccccc1NC(=O)c1ccc(CSc2nnc(-c3ccncc3)n2-c2ccccc2)cc1 [Compound 11d, N-(2-aminophenyl)-4-(((4-phenyl-5-(pyridin-4-yl)-4H-1,2,4-triazol-3-yl)thio)methyl)benzamide]
IC50 [1]: 6.19 to 20.9 µM
inhibition at 10 µM (HCT116): 45.4%

O=C(O)CCCCCSc1nnc(-c2ccncc2)n1-c1ccccc1 [Compound 5d, 6-((4-phenyl-5-(pyridin-4-yl)-4H-1,2,4-triazol-3-yl)thio)hexanoic acid]
GI% renal cancer cell lines A-498 and Caki-1 [1]: 89.34–99.81%
IC50 [1]: 0.95 to 2.35 µM
GI% against all the tested cells [2]: 40.12–99.81%

CCCC(CCC)C(=O)O [VPA, valproic acid, reference compound]
IC50 (A-498 cells [5]): 3090 µM
Akt phosphorylation [6, 8]: drastic overexpression
HDAC2 expression [6, 8]: lower ability to inhibit

C=CCn1c(SCc2ccc(C(=O)Nc3ccccc3N)cc2)nnc1-c1ccncc1 [Compound 11c, 4-(((4-allyl-5-(pyridin-4-yl)-4H-1,2,4-triazol-3-yl)thio)methyl)-N-(2-aminophenyl)benzamide]
GI% renal cancer cell lines A-498 and Caki-1 [1]: 89.34–99.81%
IC50 [1]: 0.95 to 2.35 µM
GI% against all the tested cells [2]: 40.12–99.81%

Cn1c(SCCCCCC(=O)NO)nnc1-c1ccncc1 [Compound 6a, N-hydroxy-6-((4-methyl-5-(pyridin-4-yl)-4H-1,2,4-triazol-3-yl)thio)hexanamide]
GI% renal cancer cell lines A-498 and Caki-1 [1]: 89.34–99.81%
IC50 [1]: 0.95 to 2.35 µM
GI% against all the tested cells [2]: 40.12–99.81%
STAT3 activation (STAT3 in A-498 cells): inhibit
Caspase-3 concentration (caspase-3): 515.40 pg/mL
Caspase-9 Concentration (caspase-9): 28.47 ng/mL
FAK phosphorylation [3]: decreased
expression level of HDAC2 [3]: decreased
percentage of cells in G1 phase (A-498 cells [7]; 1.5 μM): decreased
percentage of cells in S phase (A-498 cells [7]; 1.5 μM): minor changes
percentage of cells in G2/M phase (A-498 cells [7]; control 18%): 65%
Caspase-8 Concentration (caspase-8): 0.888 ng/mL
percentage of cells in G1 phase (Caki-1 cells; 1.5 μM): decreased
percentage of cells in S phase (Caki-1 cells; 1.5 μM): minor changes
percentage of cells in G2/M phase (Caki-1 cells; control 5.5%): 35%
FAK phosphorylation [4]: decreased
expression level of HDAC2 [4]: decreased
Akt phosphorylation [6, 9]: substantial ability to inhibit
FAK phosphorylation [6, 9]: steady ability to inhibit
HDAC2 expression [6, 9]: steady ability to inhibit
IC50 (HDAC1): 12.3 ± 1.64 µM
